The experiment addresses Alkaline phosphatase, tissue-nonspecific isozyme (Homo sapiens) (UniProt P05186). Put plainly: human TNAP enzyme inhibitors, SAR follow-up, selectivity assay for human IAP inhibitor project, biochemical (AID 493141). The settings on record: isolated enzyme, CDP-Star luminescence, 30 min.

Each structure is given as a SMILES string. Values joined by “and” are separate entries in the source; they are usually repeats but may differ in a detail not shown here. Equal values may be shown once. Active and inactive are the calls of the source. How the calls were made is not given here. Bounds are passed on as bounds.

Chain of Alkaline phosphatase, tissue-nonspecific isozyme (Homo sapiens) (P05186 whole entry, looked up): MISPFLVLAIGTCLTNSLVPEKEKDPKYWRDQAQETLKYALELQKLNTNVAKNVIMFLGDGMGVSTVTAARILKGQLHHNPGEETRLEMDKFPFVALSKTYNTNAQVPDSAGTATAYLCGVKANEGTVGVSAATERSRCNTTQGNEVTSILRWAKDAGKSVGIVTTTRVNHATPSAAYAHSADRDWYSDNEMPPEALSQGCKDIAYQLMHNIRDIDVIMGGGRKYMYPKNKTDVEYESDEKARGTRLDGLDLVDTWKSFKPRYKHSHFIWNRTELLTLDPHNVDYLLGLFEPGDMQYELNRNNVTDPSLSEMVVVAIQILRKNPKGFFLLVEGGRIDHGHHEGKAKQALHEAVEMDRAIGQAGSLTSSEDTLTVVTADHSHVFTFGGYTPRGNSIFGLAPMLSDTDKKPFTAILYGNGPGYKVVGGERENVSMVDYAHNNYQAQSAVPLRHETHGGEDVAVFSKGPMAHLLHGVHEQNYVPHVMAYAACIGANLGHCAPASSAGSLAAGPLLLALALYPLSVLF

For the compound `COc1cc(C=NNC(=S)Nc2cccc(S(=O)(=O)N(C)C)c2)cc(OC)c1O`, the IC50 is > 100 µM (inactive).

Consider `Cc1cccc(Nc2nc(-c3ccc(O)c(C(N)=O)c3)cs2)c1`, for which the IC50 was > 100 µM (inactive).

Consider `CN(C)S(=O)(=O)c1cccc(NC(=S)NN=Cc2ccc(O)c(O)c2O)c1`, for which the IC50 was > 100 µM (inactive).

For the compound `COC(=O)C/C=N/N=C1\NC(=O)/C(=C/C(=O)O)S1`, the IC50 was > 100 µM (inactive).

With `Oc1ccc(-c2csc(Nc3ccccc3)n2)c(O)c1`, the IC50 is > 100 µM (inactive).

Regarding `O=S(=O)(Nc1ncccn1)c1ccc(NC(=S)NCCC(c2ccccc2)c2ccccc2)cc1`, the IC50 was > 100 µM (inactive).

Consider `CC(C)(C)c1ccc(/C=N/N=C2\NC(=O)C(CC(=O)O)S2)cc1` (stereo not given), for which the IC50 was > 100 µM (inactive).

Turning to `O=S(=O)(c1ccc(NC(=S)N/N=C/c2ccc(O)c(O)c2)cc1)N1CCOCC1`, the 50% inhibitory concentration (IC50) was 14.1 µM.

Regarding `Oc1ccc(-c2csc(Nc3ccc(F)cc3)n2)cc1O`, the IC50 was 54.8 µM.

`N#CCCn1cc(/C=N/N=C2/NC(=O)C(CC(=O)O)S2)c(-c2ccc(F)cc2)n1` (stereo not given): the IC50 is > 100 µM (inactive).

For `COC(=O)/C=C1\S/C(=N/N=C/c2ccc(Cl)cc2)NC1=O`, the IC50 was > 100 µM (inactive).

For the compound `COc1ccc(-c2csc(Nc3cccc4ccccc34)n2)cc1`, the IC50 is > 100 µM (inactive).

Turning to `COC(=O)/C=C1/S/C(=N/NC(=O)c2ccccc2OC)NC1=O`, the IC50 is > 100 µM (inactive).

For the compound `Cc1cccc2sc(NNC(=O)c3ccc4c(c3)OCCO4)nc12`, the IC50 was > 100 µM (inactive).

`COc1ccc(-c2csc(Nc3cccc4ccccc34)n2)cc1F`: the IC50 was > 100 µM (inactive).

For the compound `O=[N+]([O-])c1ccccc1NC(=S)N/N=C/c1ccc(O)c(O)c1O`, the concentration for half-maximal inhibition (IC50) is 86.1 µM.

As for `CCN(CC)S(=O)(=O)c1ccc(-c2csc(=Nc3cccc4ccccc34)n2C)cc1`, the IC50 is > 100 µM (inactive).

As to `Cc1cccc(Nc2nc(-c3ccc(O)c(O)c3)cs2)c1`, the IC50 was 60.6 µM.

With `COc1ccc(/C=N/N=C2\NC(=O)C(CC(=O)O)S2)c(OC)c1` (stereo not given), the IC50 is > 100 µM (inactive).

On to `NS(=O)(=O)c1ccc(Nc2nc(-c3ccc(O)cc3O)cs2)cc1`, for which the IC50 was 59.9 µM.

With `COC(=O)/C=C1/S/C(=N/NC(=O)c2ccc(Cl)cc2Cl)NC1=O`, the IC50 is > 100 µM (inactive).

On to `Cc1ccc(C)c(Nc2nc(-c3ccc(O)cc3O)cs2)c1`, for which the IC50 was > 100 µM (inactive).

As to `Cc1c(Cl)cccc1Nc1nc(-c2ccc(O)c(O)c2)cs1`, the IC50 is 41 µM and > 100 µM (inactive).

With `O=[N+]([O-])c1ccccc1NC(=S)NN=Cc1ccc(O)c(O)c1`, the 50% inhibitory concentration (IC50) is 42.8 µM.

For the compound `Cc1cccc(NC(=S)NN=Cc2ccc3c(c2)OCO3)c1`, the IC50 is > 100 µM (inactive).

In the case of `COc1cc(C=NNC(=S)Nc2cccc(S(=O)(=O)N(C)C)c2)ccc1O`, the IC50 was > 100 µM (inactive).

With `COC(=O)/C=C1/S/C(=N/NC(=O)c2ccccc2C)NC1=O`, the IC50 was > 100 µM (inactive).

On to `Oc1ccc(-c2csc(Nc3cccc4ccccc34)n2)cc1O`, for which the IC50 is 22.5 µM and 27.9 µM.

Take `Cc1cccc(C)c1NC(=S)N/N=C/c1ccc(O)c(O)c1O`: the IC50 was > 100 µM (inactive).

For `COC(=O)/C=C1/S/C(=N/NC(=O)c2ccccc2)NC1=O`, the IC50 was > 100 µM (inactive).

With `Cn1c(=S)n(N=Cc2ccc3c(c2)OCO3)c2ccccc21`, the IC50 is > 100 µM (inactive).

As for `COc1cc([N+](=O)[O-])ccc1NC(=S)NNC(=O)c1ccc2c(c1)OCO2`, the IC50 was > 100 µM (inactive).

On to `COC(=O)/C=C1\S/C(=N/N=C/CC(=O)OC)NC1=O`, for which the IC50 is > 100 µM (inactive).

As to `NS(=O)(=O)c1ccc(Nc2nc(-c3ccc(O)c(O)c3)cs2)cc1`, the IC50 is 6.26 µM.

Regarding `COc1ccc(C=NN=C2SC(CC(=O)O)C(=O)N2c2ccc(O)cc2)cc1` (stereo not given), the IC50 was > 100 µM (inactive).

As for `O=S(=O)(c1ccc(NC(=S)N/N=C/c2ccc(O)c(O)c2O)cc1)N1CCOCC1`, the IC50 is > 100 µM (inactive).

In the case of `Cc1ccc(Nc2nc(-c3ccc(O)cc3O)cs2)cc1F`, the IC50 is > 100 µM (inactive).

Turning to `Cc1cc(C)cc(Nc2nc(-c3ccc(O)cc3O)cs2)c1`, the IC50 is > 100 µM (inactive).

Take `COc1cc(C=NNC(=S)Nc2cccc(C(=O)O)c2)ccc1O`: the IC50 is > 100 µM (inactive).

Consider `COC(=O)/C=C1/S/C(=N/N=Cc2ccc(N(C)C)cc2)NC1=O`, for which the IC50 is > 100 µM (inactive).

Take `Cc1ccc(Nc2nc(-c3ccc(O)c(C(N)=O)c3)cs2)cc1`: the IC50 is > 100 µM (inactive).

In the case of `CC(=NNC(=S)Nc1ccccc1)c1ccc2c(c1)OCO2`, the IC50 was > 100 µM (inactive).

In the case of `COc1cc([N+](=O)[O-])ccc1NC(=S)NCCC(c1ccccc1)c1ccccc1`, the IC50 was > 100 µM (inactive).

Regarding `Cc1ccc(Nc2nc(-c3ccc(O)c(O)c3)cs2)cc1`, the IC50 was > 100 µM (inactive).

Turning to `COc1ccc(NC(=S)NCCC(c2ccccc2)c2ccccc2)cc1`, the IC50 is > 100 µM (inactive).

For the compound `COc1ccc(Cl)cc1Nc1nc(-c2ccc(O)c(O)c2)cs1`, the half-inhibitory concentration (IC50) is > 100 µM (inactive) and 83.7 µM.

Regarding `Cc1ccc2nc(NNC(=O)c3ccc4c(c3)OCCO4)sc2c1`, the IC50 is > 100 µM (inactive).

As to `FC(F)(F)c1cccc(NC(=S)NCCC(c2ccccc2)c2ccccc2)c1`, the IC50 was > 100 µM (inactive).

With `Cc1ccc2sc(NNC(=O)c3ccc4c(c3)OCCO4)nc2c1C`, the IC50 is > 100 µM (inactive).

Turning to `COc1ccc(C=NNC(=S)Nc2ccccc2[N+](=O)[O-])cc1O`, the IC50 is > 100 µM (inactive).

Consider `CCOc1cc(C=NNC(=S)NC2CCCCC2)ccc1O`, for which the IC50 is > 100 µM (inactive).

Consider `CCOc1cc(/C=N/N=C2\NC(=O)C(CC(=O)O)S2)ccc1O` (stereo not given), for which the IC50 was > 100 µM (inactive).

As for `COc1ccc(/C=N/N=C2/NC(=O)C(CC(=O)O)S2)cc1OC` (stereo not given), the IC50 is > 100 µM (inactive).

As for `CCOc1ccc(Nc2nc(-c3ccc(O)c(O)c3)cs2)cc1`, the IC50 is > 100 µM (inactive).

For `Oc1ccc(Nc2nc(-c3ccc(O)c(O)c3)cs2)cc1`, the IC50 is 17.8 µM.

As to `S=C(NCCC(c1ccccc1)c1ccccc1)Nc1ccc(Cl)cc1Cl`, the IC50 was > 100 µM (inactive).

As for `Cc1cc(=O)oc2cc(NC(=S)NCCC(c3ccccc3)c3ccccc3)ccc12`, the IC50 is > 100 µM (inactive).

With `COc1cc(C(=O)NNC(=S)Nc2ccc(S(N)(=O)=O)cc2)cc(OC)c1OC`, the IC50 is > 100 µM (inactive).

Take `Cc1ccc(Nc2nc(-c3ccc(O)cc3O)cs2)cc1C`: the IC50 is > 100 µM (inactive).

Turning to `Cc1cccc(NC(=S)NNC(=O)c2ccc3c(c2)OCO3)c1`, the IC50 was > 100 µM (inactive).

Turning to `COc1cc(C=NN=C2SC(CC(=O)O)C(=O)N2c2ccc(O)cc2)ccc1O` (stereo not given), the IC50 is > 100 µM (inactive).

Consider `O=C(O)CC1S/C(=N/N=C/c2ccco2)NC1=O` (stereo not given), for which the IC50 was > 100 µM (inactive).

With `Cc1ccc(Cl)cc1Nc1nc(-c2ccc(O)c(O)c2)cs1`, the concentration for half-maximal inhibition (IC50) was 51.4 µM.

In the case of `CCOc1cc(C=N/N=C2/NC(=O)C(CC(=O)O)S2)ccc1OCc1ccccc1Cl` (stereo not given), the IC50 is > 100 µM (inactive).

Turning to `Cc1ccc(Nc2nc(-c3ccc(O)cc3O)cs2)cc1`, the IC50 was > 100 µM (inactive).

Turning to `O=[N+]([O-])c1ccc(NC(=S)NCCC(c2ccccc2)c2ccccc2)cc1`, the IC50 is > 100 µM (inactive).

Take `COc1cc(/C=N/N=C2/SCC(=O)N2c2ccc(O)cc2)ccc1O`: the IC50 is > 100 µM (inactive).

Consider `COc1cccc(Nc2nc(-c3ccc(O)cc3)cs2)c1`, for which the IC50 was > 100 µM (inactive).

For `COc1ccc(C=Nn2c(=S)n(C)c3ccccc32)cc1OC`, the IC50 is > 100 µM (inactive).

Regarding `COC(=O)/C=C1/S/C(=N/NC(=O)c2ccc(OC)cc2)NC1=O`, the IC50 is > 100 µM (inactive).

On to `COc1cc(/C=N/N=C2\NC(=O)C(CC(=O)O)S2)cc(OC)c1OC` (stereo not given), for which the IC50 was > 100 µM (inactive).

With `Cc1ccc(-c2ccc(/C=N/N=C3\NC(=O)C(CC(=O)O)S3)o2)c([N+](=O)[O-])c1` (stereo not given), the IC50 was > 100 µM (inactive).

For the compound `COC(=O)/C=C1\SC(N=Nc2c(O)[nH]c3ccccc23)=NC1=O`, the IC50 is > 100 µM (inactive).

Turning to `CCc1ccccc1Nc1nc(-c2ccc(O)c(O)c2)cs1`, the IC50 is 30.5 µM and 21.4 µM.

For `Cc1ccc(Nc2nc(-c3ccc(O)c(O)c3)cs2)cc1F`, the 50% inhibitory concentration (IC50) is 79.4 µM.

The values above are taken from PubChem BioAssay AID493141 (Sanford-Burnham Center for Chemical Genomics, 2011).
